Laboratory results: ChEMBL document CHEMBL1132461 (J Med Chem, 1999)
Numbered stars: 1 amine (or outer) side, 2 acyl side, 3 side chain; on linkers, the order of the positions; unused ones are H or OH. Bridge positions count the residues as written; N and C are the ends. Square brackets hold non-standard residues; d marks the D form. Peptide text beside a SMILES is read from it. X2 = O=C([C@@H]1CC[C@@H]([*:3])N1[*:1])[*:2]; X1 = O=C([C@@H]1CC[C@H]([*:3])N1[*:1])[*:2]; hCys = N[C@@H](CCS)C(=O)O

Assays:
[1] = target: T1, Angiotensin II receptor (AT-1) type-1 (Rattus norvegicus, UniProt P29089+P25095); experiment: In vitro inhibitory activity against rat Angiotensin II receptor, type 1 expressed in CHO cells; assay type: cell-based
T1 sequence (P29089 whole entry): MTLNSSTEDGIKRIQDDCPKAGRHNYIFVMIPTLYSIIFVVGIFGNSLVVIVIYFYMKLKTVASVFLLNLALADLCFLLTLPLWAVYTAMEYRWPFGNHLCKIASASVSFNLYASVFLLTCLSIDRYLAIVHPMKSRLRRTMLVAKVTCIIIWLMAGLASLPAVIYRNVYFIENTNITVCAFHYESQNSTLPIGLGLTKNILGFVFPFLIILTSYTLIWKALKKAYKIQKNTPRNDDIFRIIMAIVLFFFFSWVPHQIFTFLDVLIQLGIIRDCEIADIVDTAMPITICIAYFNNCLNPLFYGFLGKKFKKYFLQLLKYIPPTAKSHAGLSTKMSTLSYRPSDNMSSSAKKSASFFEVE
T1 sequence (P25095 whole entry): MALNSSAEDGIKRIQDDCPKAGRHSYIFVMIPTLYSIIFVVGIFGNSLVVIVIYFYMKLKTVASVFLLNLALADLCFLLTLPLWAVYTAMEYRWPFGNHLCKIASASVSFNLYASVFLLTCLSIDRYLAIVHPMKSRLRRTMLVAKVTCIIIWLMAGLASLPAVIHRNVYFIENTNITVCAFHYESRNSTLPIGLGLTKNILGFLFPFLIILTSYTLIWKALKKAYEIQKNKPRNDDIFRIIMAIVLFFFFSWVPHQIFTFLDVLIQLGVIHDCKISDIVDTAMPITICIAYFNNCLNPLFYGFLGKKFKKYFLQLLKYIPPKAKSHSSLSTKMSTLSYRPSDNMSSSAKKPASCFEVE

[2] = target: T1, Angiotensin II receptor (AT-1) type-1; experiment: In vitro binding affinity against Angiotensin II receptor, type 1 from rat liver membranes

Row | Structure (SMILES) | IC50 [1] [nM] | Ki [2] [nM]
1 | CC(C)[C@H](NC(=O)[C@H](CCCN=C(N)N)NC(=O)[C@@H](N)CC(=O)O)C(=O)N[C@@H](Cc1ccc(O)cc1)C(=O)N[C@H]1CS[C@@H]2CC[C@@H](C(=O)N[C@@H](Cc3ccccc3)C(=O)O)N2C(=O)[C@H](Cc2c[nH]cn2)NC1=O (H-DRVYCH[X2]F-OH; thioether 5-7) | > 10000 | 
2 | NC(N)=NCCC[C@H](NC(=O)[C@@H](N)CC(=O)O)C(=O)N[C@H]1CCS[C@H]2CC[C@@H](C(=O)N[C@@H](Cc3c[nH]cn3)C(=O)N3CCC[C@H]3C(=O)N[C@@H](Cc3ccccc3)C(=O)O)N2C(=O)[C@H](Cc2ccc(O)cc2)NC1=O (H-DR[hCys]Y[X1]HPF-OH; thioether 3-5) | 800 | 750
3 | NC(N)=NCCC[C@H](NC(=O)[C@@H](N)CC(=O)O)C(=O)N[C@H]1CCSSCC[C@@H](C(=O)N[C@@H](Cc2c[nH]cn2)C(=O)N2CCC[C@H]2C(=O)N[C@@H](Cc2ccccc2)C(=O)O)NC(=O)[C@H](Cc2ccc(O)cc2)NC1=O (H-DR[hCys]Y[hCys]HPF-OH; disulfide 3-5) | 0.2 | 0.19

Now from value to compound:

Row | IC50 [1] [nM] | Ki [2] [nM] | Structure (SMILES)
4 | > 10000 |  | NC(N)=NCCC[C@H](NC(=O)[C@@H](N)CC(=O)O)C(=O)N[C@H]1CS[C@H]2CC[C@@H](C(=O)N[C@@H](Cc3c[nH]cn3)C(=O)N3CCC[C@H]3C(=O)N[C@@H](Cc3ccccc3)C(=O)O)N2C(=O)[C@H](Cc2ccc(O)cc2)NC1=O (H-DRCY[X1]HPF-OH; thioether 3-5)
5 | > 10000 |  | NC(N)=NCCC[C@H](NC(=O)[C@@H](N)CC(=O)O)C(=O)N[C@H]1CS[C@@H]2CC[C@@H](C(=O)N[C@@H](Cc3c[nH]cn3)C(=O)N3CCC[C@H]3C(=O)N[C@@H](Cc3ccccc3)C(=O)O)N2C(=O)[C@H](Cc2ccc(O)cc2)NC1=O (H-DRCY[X2]HPF-OH; thioether 3-5)
